According to patent US11446282B2, “Methods of treating mixed dyslipidemia and hypertriglycertdemia” (Kowa Company, Ltd., priority 2017, dated 2022):

System: dyslipidemic patients with renal impairment
Test: Example 3 phase III 52-week trial: cholesterol in lipoprotein subclasses by HPLC
Type: in vivo, human
Details: for CM-C % Change from baseline at Week 52 (LOCF) / CM-C Week 52 (LOCF) / Large HDL-C % Change from baseline at Week 52 (LOCF) / Large HDL-C Week 52 (LOCF) / Large LDL-C % Change from baseline at Week 52 (LOCF) / Large LDL-C Week 52 (LOCF) / Medium HDL-C % Change from baseline at Week 52 (LOCF) / Medium HDL-C Week 52 (LOCF) / Medium LDL-C % Change from baseline at Week 52 (LOCF) / Medium LDL-C Week 52 (LOCF) / Small HDL-C % Change from baseline at Week 52 (LOCF) / Small HDL-C Week 52 (LOCF) / Small LDL-C % Change from baseline at Week 52 (LOCF) / Small LDL-C Week 52 (LOCF) / VLDL-C % Change from baseline at Week 52 (LOCF) / VLDL-C Week 52 (LOCF) / Very large HDL-C % Change from baseline at Week 52 (LOCF) / Very large HDL-C Week 52 (LOCF) / Very small HDL-C % Change from baseline at Week 52 (LOCF) / Very small HDL-C Week 52 (LOCF) / Very small LDL-C % Change from baseline at Week 52 (LOCF) / Very small LDL-C Week 52 (LOCF): 0.2 (0.4) mg/day
Description: This was a multicenter, single-arm, open-label, phase III trial. The inclusion criteria were as follows: (1) patients with dyslipidemia aged >20 years at the time of informed consent; (2) men and postmenopausal women; (3) fasting serum TG≥1.70 mmol/L (150 mg/dL) at two consecutive measurements during screening; and (4) patients who followed dietary and physical exercise guidance for >12 weeks before enrollment.
The major exclusion criteria were as follows: (1) patients with fasting serum TG≥5.65 mmol/L (500 mg/dL) during screening; (2) patients with poorly controlled diabetes mellitus (hemoglobin A1c [HbA1c]≥10.5%); (3) patients with concurrent poorly controlled thyroid disease; (4) men with serum creatinine ≥2.5 mg/dL and women with serum creatinine ≥2.0 mg/dL during screening who were already on statin therapy; (5) patients with eGFR<45 mL/min/1.73 m^2 during screening who were already on statin therapy; (6) patients with CK>5ULN (270 IU/L for men, 150 IU/L for women) during screening who were already on statin therapy; (7) patients with serious liver disease (cirrhosis Child-Pugh Class B or higher); (8) patients with gallstones or serious biliary tract disease; (9) patients who had suffered an acute myocardial infarction or stroke within three months before informed consent; and (10) patients with New York Heart Association class III or IV heart failure.
During the screening period (8 weeks prior to treatment initiation), tests were performed twice to determine patient eligibility. Thereafter, eligible patients orally received pemafibrate 0.2 mg/day (twice daily) for 52 weeks. From week 12 of the treatment period onwards, the investigators were instructed that the dose could be increased from 0.2 mg/day to 0.4 mg/day (twice daily) if there was an inadequate response to the initial dose based on fasting serum TG levels ≥1.70 mmol/L (150 mg/dL). Fasting blood and urine samples were collected at each visit. Blood and urine sample in patients with hemodialysis were collected just before dialysis. LDL-C levels were measured using the direct method. […]
The primary efficacy endpoint was the percent change in fasting serum TG from baseline to the last evaluation point. The primary safety endpoints were the incidence of an AE or ADR occurring after drug administration during the study. Secondary efficacy endpoints included percent changes in lipid variables and changes in inflammation variables at week 52 [using the last-observation-carried-forward (LOCF)]. Secondary safety endpoints included changes in the levels of aspartate aminotransferase (AST), ALT, -GT, ALP, serum creatinine, eGFR, and CK at week 52. Each baseline value was defined as (1) the mean of the corresponding values in the first and second tests at the screening examination and at week 0 of the treatment period for fasting serum TG, HDL-C, total cholesterol (TC), LDL-C, and non-HDL-C; and (2) the value at week 0 of the treatment period for the other secondary variables.
The numbers of patients with AEs and ADRs and the incidences of AEs and ADRs were calculated in the analysis of primary safety endpoints. For the secondary efficacy endpoints, one-sample t-tests or Wilcoxon signed-rank tests [for high-sensitivity C-reactive protein (hsCRP) and IL-1] were performed. The secondary safety endpoints were analyzed with Wilcoxon signed-rank tests. A two-sided significance level of 0.05 was used. SAS v. 9.3 (SAS Institute Inc., Cary, N.C., USA) was used for these analyses. Where indicated, the data are expressed as means±standard deviation (SD).

[1] = lowest eGFR group compared with other groups

## CC[C@@H](Oc1cccc(CN(CCCOc2ccc(OC)cc2)c2nc3ccccc3o2)c1)C(=O)O [Pemafibrate, (2R)-2-[3-({1,3-benzoxazol-2-yl[3-(4-methoxyphenoxy)propyl]amino}methyl)phenoxy]butanoic acid]
All Participants
  CM-C % Change from baseline at Week 52 (LOCF): −64.3%
  CM-C Week 52 (LOCF): 0.039 mmol/L
  Large HDL-C % Change from baseline at Week 52 (LOCF): −9.2%
  Large HDL-C Week 52 (LOCF): 0.115 mmol/L
  Large LDL-C % Change from baseline at Week 52 (LOCF): 63.1%
  Large LDL-C Week 52 (LOCF): 0.748 mmol/L
  Medium HDL-C % Change from baseline at Week 52 (LOCF): 19.3%
  Medium HDL-C Week 52 (LOCF): 0.443 mmol/L
  Medium LDL-C % Change from baseline at Week 52 (LOCF): 17.3%
  Medium LDL-C Week 52 (LOCF): 1.194 mmol/L
  Small HDL-C % Change from baseline at Week 52 (LOCF): 24.2%
  Small HDL-C Week 52 (LOCF): 0.473 mmol/L
  Small LDL-C % Change from baseline at Week 52 (LOCF): −20.6%
  Small LDL-C Week 52 (LOCF): 0.517 mmol/L
  VLDL-C % Change from baseline at Week 52 (LOCF): −24.9%
  VLDL-C Week 52 (LOCF): 0.866 mmol/L
  Very large HDL-C % Change from baseline at Week 52 (LOCF): 4.4%
  Very large HDL-C Week 52 (LOCF): 0.048 mmol/L
  Very small HDL-C % Change from baseline at Week 52 (LOCF): 27.9%
  Very small HDL-C Week 52 (LOCF): 0.181 mmol/L
  Very small LDL-C % Change from baseline at Week 52 (LOCF): −11.6%
  Very small LDL-C Week 52 (LOCF): 0.210 mmol/L
eGFR G1 (≥90)
  CM-C % Change from baseline at Week 52 (LOCF): −54.1%
  CM-C Week 52 (LOCF): 0.064 mmol/L
  Large HDL-C % Change from baseline at Week 52 (LOCF): −14.1%
  Large HDL-C Week 52 (LOCF): 0.107 mmol/L
  Large LDL-C % Change from baseline at Week 52 (LOCF): 54.5%
  Large LDL-C Week 52 (LOCF): 0.724 mmol/L
  Medium HDL-C % Change from baseline at Week 52 (LOCF): 11.4%
  Medium HDL-C Week 52 (LOCF): 0.441 mmol/L
  Medium LDL-C % Change from baseline at Week 52 (LOCF): 15.5%
  Medium LDL-C Week 52 (LOCF): 1.244 mmol/L
  Small HDL-C % Change from baseline at Week 52 (LOCF): 18.1%
  Small HDL-C Week 52 (LOCF): 0.482 mmol/L
  Small LDL-C % Change from baseline at Week 52 (LOCF): −18.0%
  Small LDL-C Week 52 (LOCF): 0.576 mmol/L
  VLDL-C % Change from baseline at Week 52 (LOCF): −24.6%
  VLDL-C Week 52 (LOCF): 0.932 mmol/L
  Very large HDL-C % Change from baseline at Week 52 (LOCF): 0.8%
  Very large HDL-C Week 52 (LOCF): 0.047 mmol/L
  Very small HDL-C % Change from baseline at Week 52 (LOCF): 20.6%
  Very small HDL-C Week 52 (LOCF): 0.186 mmol/L
  Very small LDL-C % Change from baseline at Week 52 (LOCF): −10.3%
  Very small LDL-C Week 52 (LOCF): 0.233 mmol/L
eGFR G2 (≥60 and <90)
  CM-C % Change from baseline at Week 52 (LOCF): −63.9%
  CM-C Week 52 (LOCF): 0.038 mmol/L
  Large HDL-C % Change from baseline at Week 52 (LOCF): −10.9%
  Large HDL-C Week 52 (LOCF): 0.115 mmol/L
  Large LDL-C % Change from baseline at Week 52 (LOCF): 67.7%
  Large LDL-C Week 52 (LOCF): 0.765 mmol/L
  Medium HDL-C % Change from baseline at Week 52 (LOCF): 17.7%
  Medium HDL-C Week 52 (LOCF): 0.448 mmol/L
  Medium LDL-C % Change from baseline at Week 52 (LOCF): 18.7%
  Medium LDL-C Week 52 (LOCF): 1.226 mmol/L
  Small HDL-C % Change from baseline at Week 52 (LOCF): 23.6%
  Small HDL-C Week 52 (LOCF): 0.477 mmol/L
  Small LDL-C % Change from baseline at Week 52 (LOCF): −20.6%
  Small LDL-C Week 52 (LOCF): 0.522 mmol/L
  VLDL-C % Change from baseline at Week 52 (LOCF): −25.3%
  VLDL-C Week 52 (LOCF): 0.834 mmol/L
  Very large HDL-C % Change from baseline at Week 52 (LOCF): 4.1%
  Very large HDL-C Week 52 (LOCF): 0.048 mmol/L
  Very small HDL-C % Change from baseline at Week 52 (LOCF): 30.9%
  Very small HDL-C Week 52 (LOCF): 0.181 mmol/L
  Very small LDL-C % Change from baseline at Week 52 (LOCF): −9.7%
  Very small LDL-C Week 52 (LOCF): 0.211 mmol/L
eGFR G3a-G3b (≥30 and <60)
  CM-C % Change from baseline at Week 52 (LOCF): −67.7%
  CM-C Week 52 (LOCF): 0.038 mmol/L
  Large HDL-C % Change from baseline at Week 52 (LOCF): −4.9%
  Large HDL-C Week 52 (LOCF): 0.124 mmol/L
  Large LDL-C % Change from baseline at Week 52 (LOCF): 59.1%
  Large LDL-C Week 52 (LOCF): 0.720 mmol/L
  Medium HDL-C % Change from baseline at Week 52 (LOCF): 20.6%
  Medium HDL-C Week 52 (LOCF): 0.447 mmol/L
  Medium LDL-C % Change from baseline at Week 52 (LOCF): 18.9%
  Medium LDL-C Week 52 (LOCF): 1.127 mmol/L
  Small HDL-C % Change from baseline at Week 52 (LOCF): 24.6%
  Small HDL-C Week 52 (LOCF): 0.467 mmol/L
  Small LDL-C % Change from baseline at Week 52 (LOCF): −18.9%
  Small LDL-C Week 52 (LOCF): 0.501 mmol/L
  VLDL-C % Change from baseline at Week 52 (LOCF): −22.9%
  VLDL-C Week 52 (LOCF): 0.892 mmol/L
  Very large HDL-C % Change from baseline at Week 52 (LOCF): 5.9%
  Very large HDL-C Week 52 (LOCF): 0.051 mmol/L
  Very small HDL-C % Change from baseline at Week 52 (LOCF): 19.7%
  Very small HDL-C Week 52 (LOCF): 0.180 mmol/L
  Very small LDL-C % Change from baseline at Week 52 (LOCF): −15.8%
  Very small LDL-C Week 52 (LOCF): 0.207 mmol/L
eGFR G4-G5 (<30)
  CM-C % Change from baseline at Week 52 (LOCF): −79.4%
  CM-C Week 52 (LOCF): 0.039 mmol/L
  Large HDL-C % Change from baseline at Week 52 (LOCF): 5.2%
  Large HDL-C Week 52 (LOCF): 0.096 mmol/L
  Large LDL-C % Change from baseline at Week 52 (LOCF): 39.9%
  Large LDL-C Week 52 (LOCF): 0.689 mmol/L
  Medium HDL-C % Change from baseline at Week 52 (LOCF): 53.2%
  Medium HDL-C Week 52 (LOCF): 0.336 mmol/L
  Medium LDL-C % Change from baseline at Week 52 (LOCF): −2.8%
  Medium LDL-C Week 52 (LOCF): 0.920 mmol/L
  Small HDL-C % Change from baseline at Week 52 (LOCF): 39.1%
  Small HDL-C Week 52 (LOCF): 0.395 mmol/L
  Small LDL-C % Change from baseline at Week 52 (LOCF): −38.6%
  Small LDL-C Week 52 (LOCF): 0.381 mmol/L
  VLDL-C % Change from baseline at Week 52 (LOCF): −28.7%
  VLDL-C Week 52 (LOCF): 1.076 mmol/L
  Very large HDL-C % Change from baseline at Week 52 (LOCF): 17.1%
  Very large HDL-C Week 52 (LOCF): 0.044 mmol/L
  Very small HDL-C % Change from baseline at Week 52 (LOCF): 23.5%
  Very small HDL-C Week 52 (LOCF): 0.155 mmol/L
  Very small LDL-C % Change from baseline at Week 52 (LOCF): −33.4%
  Very small LDL-C Week 52 (LOCF): 0.158 mmol/L
Lowest eGFR group
  high-density lipoprotein cholesterol change (observation): increase
[1]
  VLDL-C change (observation): greatest reduction
  chylomicron (CM-C) change (observation): greatest reduction
  small low-density lipoprotein cholesterol change (observation): greatest reduction
